Tests used:
NK-92 (IL-2 2.5 ng/mL) [1] = test: percent inhibition of viability; higher = more inhibition; details: 72 h
YT (IL-2 2.5 ng/mL) [2] = test: as above; details: 72 h
DERL-7 (IL-2 2.5 ng/mL) [3] = test: as above; details: 72 h
NKL (IL-2 2.5 ng/mL) [4] = test: as above; details: 72 h
IMC-1 (IL-2 20 ng/mL) [5] = test: as above; details: 72 h
[6] = system: normal primary NK cells, pool 1 (3 donors) (IL-2 2.5 ng/mL); test: as above; details: 72 h
[7] = system: normal primary NK cells, pool 2 (3 donors) (IL-2 2.5 ng/mL); test: as above; details: 72 h
NK-YS (IL-2 2.5 ng/mL) [8] = test: as above; details: 72 h
KHYG-1 (IL-2 2.5 ng/mL) [9] = test: as above; details: 72 h
[10] = system: normal primary NK cells, pool 1 (3 donors), resting (IL-2 0 ng/mL); test: as above; details: 72 h
[11] = system: normal primary NK cells, pool 3 (3 donors) (IL-2 2.5 ng/mL); test: as above; details: 72 h
SNK-6 (IL-2 2.5 ng/mL) [12] = test: as above; details: 72 h
KAI3 (IL-2 2.5 ng/mL) [13] = test: as above; details: 72 h
[14] = system: normal NK cells expanded with K562-aAPC; test: drug sensitivity score (DSS) (DSS units); higher = more sensitive; extreme values may be limits of the assay; details: 72 h; IL-2 2.5 ng/mL
Procedure: (§1)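 Drug sensitivity and resistance testing on K562-aAPC-expanded normal NK cells: 5 concentrations (10-fold steps over a 10,000-fold range), 72 h at 37 °C, viability by CellTiter-Glo normalised to DMSO and benzethonium chloride controls; DSS from the fitted curve.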

NK-92 (IL-2 2.5 ng/mL) [15] = test: as above; details: 72 h
YT (IL-2 2.5 ng/mL) [16] = test: as above; details: 72 h
DERL-7 (IL-2 2.5 ng/mL) [17] = test: as above; details: 72 h
NKL (IL-2 2.5 ng/mL) [18] = test: as above; details: 72 h
IMC-1 (IL-2 20 ng/mL) [19] = test: as above; details: 72 h
[20] = system: normal primary NK cells, pool 1 (3 donors) (IL-2 2.5 ng/mL); test: as above; details: 72 h
[21] = system: normal primary NK cells, pool 2 (3 donors) (IL-2 2.5 ng/mL); test: as above; details: 72 h
NK-YS (IL-2 2.5 ng/mL) [22] = test: as above; details: 72 h
KHYG-1 (IL-2 2.5 ng/mL) [23] = test: as above; details: 72 h
[24] = system: normal primary NK cells, pool 1 (3 donors), resting (IL-2 0 ng/mL); test: as above; details: 72 h
[25] = system: normal primary NK cells, pool 3 (3 donors) (IL-2 2.5 ng/mL); test: as above; details: 72 h
SNK-6 (IL-2 2.5 ng/mL) [26] = test: as above; details: 72 h
KAI3 (IL-2 2.5 ng/mL) [27] = test: as above; details: 72 h
[28] = system: normal NK cells expanded with K562-aAPC; test: percent inhibition of viability; higher = more inhibition; details: 72 h, IL-2 2.5 ng/mL
Procedure: as §1

CC(C)[C@H]1C(=O)N[C@@H](CCCNC(=N)N)C(=O)NCC(=O)N[C@@H](CC(=O)O)C(=O)N[C@H](Cc2ccccc2)C(=O)N1C [Cilengitide] (max concentration tested 10000 nM)
percent inhibition of viability [%]
Details | 1 nM | 10 nM | 100 nM | 1000 nM | 10000 nM
DERL-7 (IL-2 2.5 ng/mL) [3] | 1.94 | -0.89 | 5.16 | -1.67 | 1.74
IMC-1 (IL-2 20 ng/mL) [5] | -4.13 | -2.67 | -2.6 | -4.07 | -10
KAI3 (IL-2 2.5 ng/mL) [13] | 0.99 | -4.51 | 0.53 | -7.41 | -4.2
KHYG-1 (IL-2 2.5 ng/mL) [9] | -4.74 | -8.58 | -8.46 | -5.89 | -5.46
NK-92 (IL-2 2.5 ng/mL) [1] | -6.89 | -15.6 | -2.78 | -19.4 | -3.46
NK-YS (IL-2 2.5 ng/mL) [8] | 3.77 | -3.77 | -3.08 | -1.52 | -1.33
NKL (IL-2 2.5 ng/mL) [4] | -5.73 | -8.69 | -8.49 | -3.48 | -5.17
SNK-6 (IL-2 2.5 ng/mL) [12] | 5.33 | -1.64 | -18.7 | -5.25 | -3.56
YT (IL-2 2.5 ng/mL) [2] | -3.44 | -9.37 | -2 | -8.27 | -2.28
[6] | -11.5 | -10.7 | -11.7 | -4.42 | -5.41
[7] | -8.85 | -4.43 | -5.82 | -9.18 | -7.87
[10] | -16.2 | -13.2 | -18.2 | -14 | -17.6
[11] | -10.7 | -5.35 | -6.3 | -9.92 | -10.2
[28] | -8.83 | -11.2 | -7.88 | -10.2 | -11.3

Details | drug sensitivity score
DERL-7 (IL-2 2.5 ng/mL) [17] | 0
IMC-1 (IL-2 20 ng/mL) [19] | 0
KAI3 (IL-2 2.5 ng/mL) [27] | 0
KHYG-1 (IL-2 2.5 ng/mL) [23] | 0
NK-92 (IL-2 2.5 ng/mL) [15] | 0
NK-YS (IL-2 2.5 ng/mL) [22] | 0
NKL (IL-2 2.5 ng/mL) [18] | 0
SNK-6 (IL-2 2.5 ng/mL) [26] | 0
YT (IL-2 2.5 ng/mL) [16] | 0
[14] | 0
[20] | 0
[21] | 0
[24] | 0
[25] | 0

Cc1ccccc1C(C(=O)NC1CCCCC1)N(C(=O)Cn1ccnc1C)c1cccc(F)c1 (configuration not stated) [AGI-5198] (max concentration tested 10000 nM)
percent inhibition of viability [%]
Details | 1 nM | 10 nM | 100 nM | 1000 nM | 10000 nM
DERL-7 (IL-2 2.5 ng/mL) [3] | -2.01 | 0.12 | 2.86 | 4.19 | 4.9
IMC-1 (IL-2 20 ng/mL) [5] | -3.01 | 0.83 | 3.36 | -0.42 | 6.36
KAI3 (IL-2 2.5 ng/mL) [13] | 1.08 | -2.21 | 4.4 | -7.93 | 5.53
KHYG-1 (IL-2 2.5 ng/mL) [9] | 2.51 | 1.12 | 2.9 | 0.31 | 10.8
NK-92 (IL-2 2.5 ng/mL) [1] | -13.7 | -5.86 | 2.38 | -10.7 | 12.8
NK-YS (IL-2 2.5 ng/mL) [8] | 1.52 | -1.9 | 7.02 | -2.36 | 15.5
NKL (IL-2 2.5 ng/mL) [4] | -11.8 | 5.55 | 4.44 | 6.62 | 15.3
SNK-6 (IL-2 2.5 ng/mL) [12] | 8.4 | 14.1 | -2.27 | 3.58 | 14.7
YT (IL-2 2.5 ng/mL) [2] | 0.66 | 2.4 | 5.93 | 3.4 | 10.8
[6] | -4.32 | -10.5 | -2.82 | -8.59 | -1.32
[7] | -13.6 | -0.73 | 3.47 | 6.75 | 9.8
[10] | 7.51 | -9.12 | -0.43 | -14.1 | -4.43
[11] | -10 | -4.39 | -0.6 | 2.48 | 5.96
[28] | -2.75 | -1.08 | -4.23 | 1.75 | 3.84

Details | drug sensitivity score
DERL-7 (IL-2 2.5 ng/mL) [17] | 0
IMC-1 (IL-2 20 ng/mL) [19] | 0
KAI3 (IL-2 2.5 ng/mL) [27] | 0
KHYG-1 (IL-2 2.5 ng/mL) [23] | 0
NK-92 (IL-2 2.5 ng/mL) [15] | 0.01
NK-YS (IL-2 2.5 ng/mL) [22] | 0.18
NKL (IL-2 2.5 ng/mL) [18] | 0.33
SNK-6 (IL-2 2.5 ng/mL) [26] | 0.54
YT (IL-2 2.5 ng/mL) [16] | 0
[14] | 0
[20] | 0
[21] | 0
[24] | 0
[25] | 0

CCCCC(=O)OCC(=O)[C@]1(O)Cc2c(O)c3c(c(O)c2[C@@H](O[C@H]2C[C@H](NC(=O)C(F)(F)F)[C@H](O)[C@H](C)O2)C1)C(=O)c1c(OC)cccc1C3=O [Valrubicin] (max concentration tested 5000 nM)
percent inhibition of viability [%]
Details | 0.5 nM | 5 nM | 50 nM | 500 nM | 5000 nM
DERL-7 (IL-2 2.5 ng/mL) [3] | 1.97 | -4.8 | 35.6 | 99.1 | 101
IMC-1 (IL-2 20 ng/mL) [5] | -8.69 | 1.1 | 16.2 | 99.5 | 101
KAI3 (IL-2 2.5 ng/mL) [13] | -21.3 | -1.05 | 42.1 | 62.3 | 85.2
KHYG-1 (IL-2 2.5 ng/mL) [9] | -6.36 | 1.91 | 9.03 | 89.6 | 109
NK-92 (IL-2 2.5 ng/mL) [1] | -14.1 | -10.7 | 10 | 89.7 | 105
NK-YS (IL-2 2.5 ng/mL) [8] | -5.71 | 4.57 | 40.3 | 86.6 | 101
NKL (IL-2 2.5 ng/mL) [4] | -11.4 | 33.3 | 101 | 105 | 109
SNK-6 (IL-2 2.5 ng/mL) [12] | 10.3 | 28.7 | 23 | 89.2 | 86
YT (IL-2 2.5 ng/mL) [2] | -0.05 | 4.95 | 0.64 | 87.1 | 109
[6] | 2.9 | -5.69 | 4.41 | 76 | 97.4
[7] | -13.8 | -9.19 | 12.8 | 67.3 | 95.2
[10] | -3.66 | -27.1 | -0.41 | 88.2 | 92.3
[11] | -11.9 | -6.83 | 15.7 | 53.2 | 98.4
[28] | -4.09 | -1.21 | 4.69 | 55.8 | 101

Details | drug sensitivity score
DERL-7 (IL-2 2.5 ng/mL) [17] | 22.9
IMC-1 (IL-2 20 ng/mL) [19] | 20.7
KAI3 (IL-2 2.5 ng/mL) [27] | 17.4
KHYG-1 (IL-2 2.5 ng/mL) [23] | 17.5
NK-92 (IL-2 2.5 ng/mL) [15] | 17.7
NK-YS (IL-2 2.5 ng/mL) [22] | 21
NKL (IL-2 2.5 ng/mL) [18] | 35.2
SNK-6 (IL-2 2.5 ng/mL) [26] | 18.6
YT (IL-2 2.5 ng/mL) [16] | 15.8
[14] | 12.2
[20] | 14.7
[21] | 14.2
[24] | 16.1
[25] | 12.3

Source: the supplement of paper PMC5908809
